{"source": "paper PMC3466269", "about": "“A Comprehensive Strategy to Discover Inhibitors of the Translesion Synthesis DNA Polymerase κ” (PLoS ONE, 2012)", "target": "T1, Yeast pol δ (Saccharomyces cerevisiae, UniProt P15436)", "T1 sequence (P15436 1-1097)": "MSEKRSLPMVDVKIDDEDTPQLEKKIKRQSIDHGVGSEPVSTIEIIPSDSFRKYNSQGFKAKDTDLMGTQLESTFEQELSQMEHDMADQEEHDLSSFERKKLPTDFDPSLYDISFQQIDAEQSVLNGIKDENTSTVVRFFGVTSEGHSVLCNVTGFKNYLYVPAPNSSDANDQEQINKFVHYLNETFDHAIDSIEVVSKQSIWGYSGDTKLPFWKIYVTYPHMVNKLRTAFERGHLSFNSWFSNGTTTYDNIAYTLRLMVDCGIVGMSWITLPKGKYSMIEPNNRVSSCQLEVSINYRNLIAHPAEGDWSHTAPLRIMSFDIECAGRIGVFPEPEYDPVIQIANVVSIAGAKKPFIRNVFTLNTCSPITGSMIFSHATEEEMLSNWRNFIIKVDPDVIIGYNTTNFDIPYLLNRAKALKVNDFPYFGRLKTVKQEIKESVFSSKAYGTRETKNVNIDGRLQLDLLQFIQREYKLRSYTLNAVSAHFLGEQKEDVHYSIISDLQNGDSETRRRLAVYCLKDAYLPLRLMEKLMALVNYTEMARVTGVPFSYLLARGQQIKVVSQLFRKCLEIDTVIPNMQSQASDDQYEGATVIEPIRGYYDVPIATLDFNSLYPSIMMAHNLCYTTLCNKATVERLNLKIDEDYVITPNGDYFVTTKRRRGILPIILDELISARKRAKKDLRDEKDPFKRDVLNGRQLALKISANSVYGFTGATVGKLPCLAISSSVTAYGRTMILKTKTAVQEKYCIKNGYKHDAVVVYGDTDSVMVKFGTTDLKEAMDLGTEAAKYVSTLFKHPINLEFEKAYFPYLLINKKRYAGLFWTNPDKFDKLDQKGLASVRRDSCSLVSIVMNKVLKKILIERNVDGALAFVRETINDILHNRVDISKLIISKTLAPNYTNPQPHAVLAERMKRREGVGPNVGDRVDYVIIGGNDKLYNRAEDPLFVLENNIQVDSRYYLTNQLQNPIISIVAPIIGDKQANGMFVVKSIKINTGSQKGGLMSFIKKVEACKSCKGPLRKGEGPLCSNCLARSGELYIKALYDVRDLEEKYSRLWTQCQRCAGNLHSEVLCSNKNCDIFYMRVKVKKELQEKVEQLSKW", "T1 sequence (P46957 1-487 partner)": "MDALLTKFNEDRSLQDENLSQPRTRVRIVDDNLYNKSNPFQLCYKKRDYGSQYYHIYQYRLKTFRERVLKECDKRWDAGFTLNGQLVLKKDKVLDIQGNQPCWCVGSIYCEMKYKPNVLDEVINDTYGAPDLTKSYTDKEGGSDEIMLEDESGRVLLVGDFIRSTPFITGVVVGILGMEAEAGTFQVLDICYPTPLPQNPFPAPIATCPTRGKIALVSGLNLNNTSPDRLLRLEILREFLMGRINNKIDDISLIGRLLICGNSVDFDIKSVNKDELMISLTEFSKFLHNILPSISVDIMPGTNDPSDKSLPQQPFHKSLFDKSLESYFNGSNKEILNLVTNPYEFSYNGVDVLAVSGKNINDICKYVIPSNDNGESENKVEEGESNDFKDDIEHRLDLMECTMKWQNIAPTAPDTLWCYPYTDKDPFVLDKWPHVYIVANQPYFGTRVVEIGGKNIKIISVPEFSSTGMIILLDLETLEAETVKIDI", "T1 sequence (P47110 1-350 partner)": "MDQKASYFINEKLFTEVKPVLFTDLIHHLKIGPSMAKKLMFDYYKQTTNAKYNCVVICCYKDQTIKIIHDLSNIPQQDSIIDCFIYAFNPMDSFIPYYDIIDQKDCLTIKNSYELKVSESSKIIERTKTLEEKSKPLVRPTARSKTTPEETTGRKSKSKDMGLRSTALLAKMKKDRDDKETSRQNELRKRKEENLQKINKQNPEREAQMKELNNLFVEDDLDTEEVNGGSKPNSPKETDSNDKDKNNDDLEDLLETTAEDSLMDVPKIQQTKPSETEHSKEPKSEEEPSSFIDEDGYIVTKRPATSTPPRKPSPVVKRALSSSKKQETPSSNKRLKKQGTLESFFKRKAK", "assay": "Radioactive gel-based primer extension assay, pol δ", "assay_type": "biochemical", "method": "The reactions with pol κ, pol η, and pol ι were carried out in the buffers containing 25 mM Tris-HCl, pH 7.5, 8 mM MgCl2, 10% glycerol, 100 µg/mL bovine serum albumin, and 5 mM DTT. Buffers for pol δ reactions contained 40 mM Hepes-KOH, pH 6.8, 10% glycerol, 200 µg/mL bovine serum albumin, 1 mM DTT, and 8 mM MgCl2. Final concentration of pol κ, pol η, pol ι, or pol δ in the reaction was 0.25 nM, 1 nM, 2.5 nM, or 4 nM, respectively. In this assay, a polymerase was preincubated with the compound for 15 min at room temperature. Primer extensions were then initiated by the addition of DNA substrate at final concentration of 5 nM and carried out for 30 min at room temperature in the presence of 100 µM dCTP and dGTP. The reactions were terminated by the addition of an equal volume of a dye solution containing 95% (v/v) formamide, 10 mM EDTA, 0.03% (w/v) xylene cyanol, and 0.03% (w/v) bromphenol blue. Reaction products were separated through a 15% acrylamide gel containing 8 M urea and visualized with a PhosphorImager screen. The ratio of extended primer to the total amount of primer was measured using ImageQuant 5.2 software to calculate the percentage of primer extended. IC50 values were determined by fitting the data to variable slope four-parameter equations using GraphPad Prism 5. […]"}
{"molecule": "CCOc1nc2cccc(C(=O)OC(C)OC(=O)OC3CCCCC3)c2n1Cc1ccc(-c2ccccc2-c2nnn[nH]2)cc1", "note": "(centres unmarked) [candesartan cilexetil, Candesartan cilexetil]", "values": [{"measurement": "IC50 pol δ", "setting": "maximum concentration 80 µM", "value": "could not be determined"}, {"measurement": "Inhibition of pol δ DNA synthesis", "setting": "several concentrations, maximum 80 µM, data not shown", "value": "only at 80 µM concentration was there detectable inhibition"}]}
